# Data published in ChEMBL document CHEMBL6096719, “Kidney Targeting Smart Antibiotic Discovery: Multimechanism Pleuromutilins for Pyelonephritis Therapy” (J Med Chem, 2025).
# The source made the active and inactive calls. No cut-off for these calls is given here.
# Assays:
# Cell membrane [1] = experiment: Disruption of cell membrane in methicillin-resistant Staphylococcus aureus ATCC33591 assessed as leakage of bacterial cell contents by measuring increase in conductivity of bacterial solution at MIC measured for 6 hrs by conductivity meter analysis
# Staphylococcus aureus [2] = experiment: Antibacterial activity against methicillin-resistant Staphylococcus aureus 206 assessed as inhibition of bacterial growth incubated for 24 hrs by broth microdilution method; type: functional
# [3] = Drug uptake in Sprague-Dawley rat liver at 5 mg/kg, iv measured for 6 hrs by LC-MS/MS analysis; type: ADME, organism-based; conditions: in vivo
# Escherichia coli [4] = experiment: Antibiofilm activity against Escherichia coli ATCC25922 assessed as eradication of preformed biofilms incubated for 24 hrs with preformed biofilms by crystal violet staining based analysis; type: functional, organism-based; conditions: dose 0.125-0.5 µg/ml
# Cell membrane [5] = experiment: Disruption of cell membrane in Escherichia coli ATCC25922 assessed as induction of cell death by measuring increase in propidium iodide fluorescence intensity at 0.5 ug/ml incubated for 2 hrs by fluorescence field microscopy; type: subcellular; conditions: dose 0.5 µg/ml
# [6] = molecular target: Voltage-gated inwardly rectifying potassium channel KCNH2 (Homo sapiens, UniProt Q12809); experiment: Inhibition of hERG expressed in HEK293 cells assessed as inhibition of tail current measured at holding potential of -80 mV by automated patch clamp analysis; type: toxicity, cell-based
# Cell membrane [7] = experiment: Disruption of cell membrane in Escherichia coli ATCC25922 assessed as leakage of bacterial cell contents by measuring increase in conductivity of bacterial solution at MIC measured for 6 hrs by conductivity meter analysis
# Staphylococcus aureus [8] = experiment: Antibacterial activity against methicillin-resistant Staphylococcus aureus ATCC 33591 assessed as inhibition of bacterial growth incubated for 24 hrs by broth microdilution method; type: functional
# Staphylococcus aureus [9] = experiment: Antibacterial activity against Staphylococcus aureus ATCC 29213 assessed as inhibition of bacterial growth incubated for 24 hrs by broth microdilution method; type: functional
# Staphylococcus aureus [10] = experiment: Antibacterial activity against methicillin-resistant Staphylococcus aureus ATCC33591 infected in systemic intraperitoneal infection Kunming mouse model assessed as increase in animal's survival rate at 5 mg/kg, ip treated at 1 hr post-infection and measured on day 7; type: functional; conditions: ATCC33591, 168 h, time 7 day
# Klebsiella pneumoniae = experiment: Antibacterial activity against multidrug-resistant Klebsiella pneumoniae 893 assessed as inhibition of bacterial growth incubated for 24 hrs by broth microdilution method; type: functional
# Staphylococcus aureus [11] = experiment: Antibacterial activity against methicillin-resistant Staphylococcus aureus ATCC33591 infected in systemic intraperitoneal infection Kunming mouse model assessed as decrease in bacterial colonies in kidneys administered intraperitoneally at 1 hr post-infection and measured after 7 days; type: functional, organism-based; conditions: dose 5-20 mg/kg, route ip, time 7.0 day
# [12] = Tmax in Sprague-Dawley rat at 10 mg/kg, po; type: ADME, organism-based; conditions: in vivo
# Escherichia coli [13] = experiment: Antibacterial activity against Escherichia coli ATCC25922 assessed as post-antibiotic effect at 0.25 ug/ml incubated for 1 hr followed by washing and incubation in MHB medium for 10 hrs and later cultured on agar plate for overnight; type: functional; conditions: dose 0.25 µg/ml
# [14] = Observed clearance in Sprague-Dawley rat at 5 mg/kg, iv; type: ADME, organism-based; conditions: in vivo
# Staphylococcus aureus [15] = experiment: Antibacterial activity against methicillin-resistant Staphylococcus aureus ATCC33591 infected in systemic intraperitoneal infection Kunming mouse model assessed as decrease in bacterial colonies in lungs administered intraperitoneally at 1 hr post-infection and measured after 7 days; type: functional, organism-based; conditions: dose 5-20 mg/kg, route ip, time 7.0 day
# Cell membrane [16] = experiment: Disruption of cell membrane in methicillin-resistant Staphylococcus aureus ATCC33591 assessed as decrease in intracellular pH at 0.125 ug/ml incubated for 30 mins by cFDA-SE probe based fluorescence analysis; conditions: dose 0.125 µg/ml
# Staphylococcus aureus [17] = experiment: Antibacterial activity against methicillin-resistant Staphylococcus aureus 575 assessed as inhibition of bacterial growth incubated for 24 hrs by broth microdilution method; type: functional
# Staphylococcus aureus [18] = experiment: Antibiofilm activity against methicillin-resistant Staphylococcus aureus ATCC33591 assessed as eradication of preformed biofilms incubated for 24 hrs with preformed biofilms by crystal violet staining based analysis; type: functional, organism-based; conditions: dose 0.125-0.5 µg/ml
# [19] = molecular target: Solute carrier family 22 member 1 (Homo sapiens, UniProt O15245); experiment: Substrate activity at human OCT1 transfected in HEK293 cells assessed as increase in intracellular drug content at 100 uM measured after 5 mins; type: ADME, cell-based; conditions: hek293, 5 min
# Escherichia coli [20] = experiment: Antibiofilm activity against Escherichia coli ATCC25922 assessed as disruption of preformed biofilms at 0.5 ug/ml incubated for 24 hrs with preformed biofilms by crystal violet staining based analysis; type: functional; conditions: dose 0.5 µg/ml
# Staphylococcus aureus [21] = experiment: Antibacterial activity against methicillin-resistant Staphylococcus aureus ATCC33591 assessed as post-antibiotic effect at 0.25 ug/ml incubated for 1 hr followed by washing and incubation in MHB medium for 10 hrs and later cultured on agar plate for overnight; type: functional; conditions: dose 0.25 µg/ml
# [22] = Oral bioavailability in Sprague-Dawley rat at 10 mg/kg; type: ADME, organism-based; conditions: in vivo
# Staphylococcus aureus [23] = experiment: Antibacterial activity against methicillin-resistant Staphylococcus aureus ATCC33591 infected in systemic intraperitoneal infection Kunming mouse model assessed as decrease in inflammation and neutrophil infiltration in liver at 5 mg/kg, ip treated at 1 hr post-infection and measured after 7 days by Hematoxylin-Eosin staining based analysis; type: functional, organism-based; conditions: time 7.0 day
# [24] = Tmax in Sprague-Dawley rat at 5 mg/kg, iv; type: ADME, organism-based; conditions: in vivo
# [25] = Cytotoxicity against human HEK293 cells assessed as reduction in cell viability incubated for 24 hrs by CCK8 assay; type: toxicity, cell-based
# [26] = Half-life in Sprague-Dawley rat at 10 mg/kg, po; type: ADME, organism-based; conditions: in vivo
# Escherichia coli [27] = experiment: Antibacterial activity against Escherichia coli ATCC 25922 assessed as inhibition of bacterial growth incubated for 24 hrs by broth microdilution method; type: functional
# [28] = system: Mycoplasmoides gallisepticum; experiment: Anti-mycoplasma activity against Mycoplasma gallisepticum NCTC10115 assessed as inhibition of bacterial growth incubated for 3 to 5 days by broth microdilution method; type: functional; conditions: time 3-5 day
# Escherichia coli [29] = experiment: Antibacterial activity against Escherichia coli ATCC25922 infected in pyelonephritis C57BL/6 mouse model assessed as saturated bacterial clearance at >=5 mg/kg, iv qd for 3 days administered at 2 days post-infection; type: functional, organism-based; conditions: time 3.0 day
# [30] = system: Staphylococcus epidermidis; experiment: Antibacterial activity against methicillin-resistant Staphylococcus epidermidis ATCC 51625 assessed as inhibition of bacterial growth incubated for 24 hrs by broth microdilution method; type: functional
# Escherichia coli [31] = experiment: Antibacterial activity against Escherichia coli ATCC25922 infected in pyelonephritis C57BL/6 mouse model assessed as decrease in inflammatory cell infiltration in kidney at 3 to 10 mg/kg, iv qd for 3 days administered at 2 days post-infection by Hematoxylin-Eosin staining based analysis; type: functional, organism-based; conditions: dose 3-10 mg/kg, time 3.0 day
# Cell membrane [32] = experiment: Disruption of cell membrane in Escherichia coli ATCC25922 assessed as induction of cell death by measuring increase in propidium iodide fluorescence intensity at 0.5 ug/ml incubated for 2 hrs by bright field microscopy; type: subcellular; conditions: dose 0.5 µg/ml
# Escherichia coli [33] = experiment: Antibacterial activity against Escherichia coli ATCC25922 infected in pyelonephritis C57BL/6 mouse model assessed as decrease in kidney swelling at 3 to 10 mg/kg, iv qd for 3 days administered at 2 days post-infection; type: functional, organism-based; conditions: dose 3-10 mg/kg, time 3.0 day
# Staphylococcus aureus [34] = experiment: Antibacterial activity against methicillin-resistant Staphylococcus aureus 596 assessed as inhibition of bacterial growth incubated for 24 hrs by broth microdilution method; type: functional
# Chain of Voltage-gated inwardly rectifying potassium channel KCNH2 (Q12809 whole entry): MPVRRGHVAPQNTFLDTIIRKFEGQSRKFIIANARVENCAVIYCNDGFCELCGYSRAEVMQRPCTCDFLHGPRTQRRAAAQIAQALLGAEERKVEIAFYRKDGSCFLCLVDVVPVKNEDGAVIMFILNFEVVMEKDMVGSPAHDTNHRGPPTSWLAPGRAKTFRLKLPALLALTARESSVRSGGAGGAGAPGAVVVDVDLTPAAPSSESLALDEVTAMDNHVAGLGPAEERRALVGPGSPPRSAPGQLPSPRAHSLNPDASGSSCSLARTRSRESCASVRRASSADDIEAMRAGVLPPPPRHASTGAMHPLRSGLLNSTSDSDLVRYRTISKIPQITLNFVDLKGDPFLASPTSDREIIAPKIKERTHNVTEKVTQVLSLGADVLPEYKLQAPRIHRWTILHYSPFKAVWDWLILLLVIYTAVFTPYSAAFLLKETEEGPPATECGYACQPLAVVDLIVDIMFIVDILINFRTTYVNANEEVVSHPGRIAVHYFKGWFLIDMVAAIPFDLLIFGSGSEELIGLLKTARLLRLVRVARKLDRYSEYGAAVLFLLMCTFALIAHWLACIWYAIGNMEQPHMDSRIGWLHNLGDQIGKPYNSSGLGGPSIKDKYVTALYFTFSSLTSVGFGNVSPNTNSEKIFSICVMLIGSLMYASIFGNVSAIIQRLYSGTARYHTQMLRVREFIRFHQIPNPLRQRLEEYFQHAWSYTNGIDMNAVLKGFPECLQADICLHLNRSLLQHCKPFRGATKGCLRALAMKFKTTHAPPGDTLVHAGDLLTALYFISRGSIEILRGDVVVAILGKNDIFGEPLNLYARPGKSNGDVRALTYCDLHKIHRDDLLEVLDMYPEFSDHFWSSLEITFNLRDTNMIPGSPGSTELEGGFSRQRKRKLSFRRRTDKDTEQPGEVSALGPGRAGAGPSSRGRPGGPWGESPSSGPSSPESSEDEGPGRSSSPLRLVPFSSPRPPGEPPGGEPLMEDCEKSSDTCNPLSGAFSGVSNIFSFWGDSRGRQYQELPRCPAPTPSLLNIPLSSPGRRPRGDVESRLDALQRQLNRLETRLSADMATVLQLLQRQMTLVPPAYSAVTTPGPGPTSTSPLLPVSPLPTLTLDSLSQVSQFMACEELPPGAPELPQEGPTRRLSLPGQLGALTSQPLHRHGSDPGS
# Chain of Solute carrier family 22 member 1 (O15245 whole entry): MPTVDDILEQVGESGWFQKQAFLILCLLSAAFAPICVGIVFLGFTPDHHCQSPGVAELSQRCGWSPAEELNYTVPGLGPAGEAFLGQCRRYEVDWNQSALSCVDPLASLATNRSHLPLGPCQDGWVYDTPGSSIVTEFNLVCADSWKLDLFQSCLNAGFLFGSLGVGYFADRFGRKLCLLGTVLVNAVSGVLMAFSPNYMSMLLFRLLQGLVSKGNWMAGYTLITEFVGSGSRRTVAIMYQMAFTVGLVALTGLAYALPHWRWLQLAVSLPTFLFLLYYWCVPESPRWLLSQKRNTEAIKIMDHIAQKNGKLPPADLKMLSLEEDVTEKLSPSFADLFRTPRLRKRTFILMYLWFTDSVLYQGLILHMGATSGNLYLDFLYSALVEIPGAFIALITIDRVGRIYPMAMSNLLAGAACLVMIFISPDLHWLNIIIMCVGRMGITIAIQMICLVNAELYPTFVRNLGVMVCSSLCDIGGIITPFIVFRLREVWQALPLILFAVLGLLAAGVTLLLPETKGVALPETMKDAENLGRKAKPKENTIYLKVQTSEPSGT
structure (smiles),measurement,setting,value
C=C[C@]1(C)C[C@@H](OC(=O)CSc2nc3cc[n+](Cc4ccc(C)cc4)cc3[nH]2)[C@]2(C)[C@H](C)CC[C@]3(CCC(=O)[C@H]32)[C@@H](C)[C@@H]1O.[Br-],Activity,Cell membrane [1],Active
same,MIC,Staphylococcus aureus [2],1 µg/mL
same,Drug uptake,[3],Active
same,Activity,Escherichia coli [4],Dose-dependent-effect
same,Activity,Cell membrane [5],Active
same,IC50,[6],71.5 µM
same,Activity,Cell membrane [7],Active
same,MIC,Staphylococcus aureus [8],< 1 µg/mL
same,MIC,Staphylococcus aureus [9],< 1 µg/mL
same,survival at 5 mg/kg,Staphylococcus aureus [10],80%
same,MIC,Klebsiella pneumoniae,2 µg/mL
same,Activity,Staphylococcus aureus [11],Active; Superior Efficacy Compared To Valnemulin Observed
same,Tmax,[12],30 min
same,PAE,Escherichia coli [13],1.78 h
same,clearance,[14],5.04 mL/min/kg
same,Activity,Staphylococcus aureus [15],Active; Superior Efficacy Compared To Valnemulin Observed
same,Activity,Cell membrane [16],Active
same,MIC,Staphylococcus aureus [17],1 µg/mL
same,Activity,Staphylococcus aureus [18],Dose-dependent-effect
same,Activity,[19],Active
same,Activity,Escherichia coli [20],88.55%
same,PAE,Staphylococcus aureus [21],1.53 h
same,bioavailability,[22],47.9%
same,Activity,Staphylococcus aureus [23],Active; Nearly Restoration Of Normal Histology Observed
same,Tmax,[24],1.8 min
same,CC50 at 24 h,[25],96.4 µM
same,half-life,[26],94.2 min
same,MIC,Escherichia coli [27],< 1 µg/mL
same,MIC,[28],< 0.04 µg/mL
same,Activity,Escherichia coli [29],Active
same,MIC,[30],< 1 µg/mL
same,Activity,Escherichia coli [31],Active
same,Activity,Cell membrane [32],Active
same,Activity,Escherichia coli [33],Active
same,MIC,Staphylococcus aureus [34],2 µg/mL
